Laboratory results as given in article PMC7504751, “Potential of 2-Chloro-N-(4-fluoro-3-nitrophenyl)acetamide Against Klebsiella pneumoniae and In Vitro Toxicity Analysis” (Molecules, 2020).
Converted amounts (≈) assume the structure as drawn. Where two headings read alike, the source gives them in different places.

Key:
K. pneumoniae strains [1] = test: Minimum inhibitory concentration (MIC), broth microdilution; type: cell-based, Klebsiella pneumoniae
Method: (§1) The clinical isolates strains of K. pneumoniae were used in this study belong to the MICOTECA of the Antibacterial and Antifungal Activity Research Laboratory of the Federal University of Paraíba, Brazil, which are: KP-25, KP-26, KP-56, KP-83, KP-87, KP-138, KP-143, KP-166, KP-173, KP-176, KP-260, and KP-326. The American Type Culture Collection strain ATCC-700603 was used as controls. For use in the assays, bacterial suspensions were prepared in 0.9% saline solution, from fresh cultures, and adjusted to the McFarland standard 0.5 scale.
To assess the antibacterial activity of substances A1 and A2, the minimum inhibitory concentration against K. pneumoniae strains was determined. The substances were solubilized in dimethyl sulfoxide (DMSO) at 5% and Tween-80 at 2%, to obtain emulsions in the concentrations necessary for use in the tests. The MIC determination was performed using the broth microdilution technique in a 96-well plate to obtain different concentrations of A1 and A2 [35]. In parallel, controls for sterility, cell viability, and interference of the vehicles used in the preparation of substance emulsions (DMSO and Tween-80) were also performed. MIC is defined as the lowest concentration capable of causing complete inhibition of bacterial growth after 24 h at 35 ± 2 °C.

K. pneumoniae strains [2] = test: Minimum bactericidal concentration (MBC); type: cell-based, Klebsiella pneumoniae; details: for Effect: from MBC/MIC ratio
Method: as §1
After MIC reading, the A2 minimum bactericidal concentration was determined by removing aliquots from the microdilution plates in the wells corresponding to concentrations equivalent to MIC, 2× MIC, 4× MIC, and 8× MIC and inoculating in new plates containing only culture broth. All controls were performed in parallel. MBC is defined as the lowest concentration capable of causing complete inhibition of bacterial growth after 24 h at 35 ± 2 °C [21, 44].

[3] = tested on: K. pneumoniae (ATCC-700603 and KP-56); test: Time-kill kinetics; type: cell-based, Klebsiella pneumoniae
Method: The determination of the action time of A2 substance against K. pneumoniae (ATCC-700603 and KP-56) was carried out exposing the microorganisms to concentrations equivalent to MIC and 2× MIC during times 0, 2, 4, 6, 8, 10, and 24 h. After incubation on Mueller–Hinton agar, bacterial colonies were counted. Bactericidal activity was defined as a ≥3-log reduction in bacterial counts (log10 CFU/mL).

K. pneumoniae = test: Effect on bacterial cell integrity (release of 260 nm absorbing material); type: cell-based, Klebsiella pneumoniae; details: compared to negative control, p ≤ 0.0001
Method: The cell integrity can be assessed by releasing intracellular material, mainly nucleotides, which absorb 260 nm wavelengths. The K pneumoniae strains ATCC-700603, KP-26, KP-56, and KP-143 were used to perform this test. First, the bacterial inoculum was incubated in BHI broth (1 × 10^7 CFU/mL) overnight at 35 ± 2 °C. Then, centrifugation was performed at 400× g for 10 min. The cell pellet was washed three times with sterile PBS (phosphate-buffered saline) and resuspended in PBS containing the A2 substance at MIC and 2× MIC concentrations. As a negative control, suspensions that underwent the same procedures, but without treatment with the substance, were used. The tubes corresponding to the MIC were incubated for 10 h at 35 ± 2 °C, and the tubes corresponding to the 2× MIC, for 6 h. After incubation, the suspensions were centrifuged at 400× g for 10 min and the supernatants were read on a spectrophotometer at 260 nm. All analyses were performed in triplicate.

[4] = tested on: red blood cells (RBC) of the ABO system; test: Antihemolytic activity (osmotic fragility); type: cell-based, human; details: 0.24% NaCl
Method: The tests were performed according to the recommendations established by the Code of Ethics of the World Medical Association, after approval by the ethics committee of the Centro Universitário de Patos (number: 3621284). Blood samples (types A, B, and O) and smears of oral mucosa were donated by young, healthy adults.
The analysis of the osmotic fragility of the red cells was performed using previously prepared red blood cell suspensions at 0.5%. Different concentrations (50, 100, 500, and 1000 µg/mL) of the A2 substance were used for the treatment of 0.5% RBC suspensions for 1h at 22 ± 2 °C. The samples were centrifuged at 2500 rpm for 5 min and the supernatant was discarded. The erythrocytes were resuspended in a hypotonic solution of 0.24% sodium chloride for one hour at 22 ± 2 °C. After this period, the samples were centrifuged at 700× g for 5 min and the hemolysis of the supernatant was quantified by spectrophotometry at 540 nm. As controls, a suspension of untreated red blood cells was used as a negative control (0% hemolysis) and in a hypotonic solution as a positive control (100% hemolysis).

MIC (K. pneumoniae strains [1]; Klebsiella pneumoniae, ATCC700603, strain ATCC-700603, 24 h at 35 ± 2 °C, read-out: MIC): 512 µg/mL (≈ 2200 µM)
MIC (K. pneumoniae strains [1]; Klebsiella pneumoniae, 100% of the K. pneumoniae strains used in this study, read-out: MIC): 512 µg/mL (≈ 2200 µM)
MIC (K. pneumoniae strains [1]; Klebsiella pneumoniae, strain KP-138, 24 h at 35 ± 2 °C, read-out: MIC): 512 µg/mL (≈ 2200 µM)
MIC (K. pneumoniae strains [1]; strain KP-25, 24 h at 35 ± 2 °C): 512 µg/mL (≈ 2200 µM)
MIC (K. pneumoniae strains [1]; strain KP-26, 24 h at 35 ± 2 °C): 512 µg/mL (≈ 2200 µM)
MIC (K. pneumoniae strains [1]; strain KP-56, 24 h at 35 ± 2 °C): 512 µg/mL (≈ 2200 µM)
MIC (K. pneumoniae strains [1]; strain KP-83, 24 h at 35 ± 2 °C): 512 µg/mL (≈ 2200 µM)
MIC (K. pneumoniae strains [1]; strain KP-87, 24 h at 35 ± 2 °C): 512 µg/mL (≈ 2200 µM)
MIC (K. pneumoniae strains [1]; strain KP-143, 24 h at 35 ± 2 °C): 512 µg/mL (≈ 2200 µM)
MIC (K. pneumoniae strains [1]; strain KP-166, 24 h at 35 ± 2 °C): 512 µg/mL (≈ 2200 µM)
MIC (K. pneumoniae strains [1]; strain KP-173, 24 h at 35 ± 2 °C): 512 µg/mL (≈ 2200 µM)
MIC (K. pneumoniae strains [1]; strain KP-176, 24 h at 35 ± 2 °C): 512 µg/mL (≈ 2200 µM)
MIC (K. pneumoniae strains [1]; strain KP-260, 24 h at 35 ± 2 °C): 512 µg/mL (≈ 2200 µM)
MIC (K. pneumoniae strains [1]; strain KP-326, 24 h at 35 ± 2 °C): 512 µg/mL (≈ 2200 µM)
melting point: 91 to 93 °C
SMILES: O=C(CCl)Nc1ccc(F)c([N+](=O)[O-])c1 [A2, 2-chloro-N-(4-fluoro-3-nitrophenyl)acetamide]
MBC (K. pneumoniae strains [2]; Klebsiella pneumoniae, ATCC700603, strain ATCC-700603, read-out: MBC): 512 µg/mL (≈ 2200 µM)
MBC (K. pneumoniae strains [2]; Klebsiella pneumoniae, all K. pneumoniae strains used in this study, read-out: MBC): 512 µg/mL (≈ 2200 µM)
mode of action (bactericidal / bacteriostatic) (K. pneumoniae strains [2]; all K. pneumoniae strains, from the MIC): bactericidal
Effect (K. pneumoniae strains [2]; strain ATCC-700603): Bactericide (bactericidal activity when the ratio between MBC and MIC is ≤4)
MBC (K. pneumoniae strains [2]; strain KP-25): 512 µg/mL (≈ 2200 µM)
Effect (K. pneumoniae strains [2]; strain KP-25): Bactericide (bactericidal activity when the ratio between MBC and MIC is ≤4)
MBC (K. pneumoniae strains [2]; strain KP-26): 512 µg/mL (≈ 2200 µM)
Effect (K. pneumoniae strains [2]; strain KP-26): Bactericide (bactericidal activity when the ratio between MBC and MIC is ≤4)
MBC (K. pneumoniae strains [2]; strain KP-56): 512 µg/mL (≈ 2200 µM)
Effect (K. pneumoniae strains [2]; strain KP-56): Bactericide (bactericidal activity when the ratio between MBC and MIC is ≤4)
MBC (K. pneumoniae strains [2]; strain KP-83): 512 µg/mL (≈ 2200 µM)
Effect (K. pneumoniae strains [2]; strain KP-83): Bactericide (bactericidal activity when the ratio between MBC and MIC is ≤4)
MBC (K. pneumoniae strains [2]; strain KP-87): 512 µg/mL (≈ 2200 µM)
Effect (K. pneumoniae strains [2]; strain KP-87): Bactericide (bactericidal activity when the ratio between MBC and MIC is ≤4)
MBC (K. pneumoniae strains [2]; strain KP-138): 512 µg/mL (≈ 2200 µM)
Effect (K. pneumoniae strains [2]; strain KP-138): Bactericide (bactericidal activity when the ratio between MBC and MIC is ≤4)
MBC (K. pneumoniae strains [2]; strain KP-143): 512 µg/mL (≈ 2200 µM)
Effect (K. pneumoniae strains [2]; strain KP-143): Bactericide (bactericidal activity when the ratio between MBC and MIC is ≤4)
MBC (K. pneumoniae strains [2]; strain KP-166): 512 µg/mL (≈ 2200 µM)
Effect (K. pneumoniae strains [2]; strain KP-166): Bactericide (bactericidal activity when the ratio between MBC and MIC is ≤4)
MBC (K. pneumoniae strains [2]; strain KP-173): 512 µg/mL (≈ 2200 µM)
Effect (K. pneumoniae strains [2]; strain KP-173): Bactericide (bactericidal activity when the ratio between MBC and MIC is ≤4)
MBC (K. pneumoniae strains [2]; strain KP-176): 512 µg/mL (≈ 2200 µM)
Effect (K. pneumoniae strains [2]; strain KP-176): Bactericide (bactericidal activity when the ratio between MBC and MIC is ≤4)
MBC (K. pneumoniae strains [2]; strain KP-260): 512 µg/mL (≈ 2200 µM)
Effect (K. pneumoniae strains [2]; strain KP-260): Bactericide (bactericidal activity when the ratio between MBC and MIC is ≤4)
MBC (K. pneumoniae strains [2]; strain KP-326): 512 µg/mL (≈ 2200 µM)
Effect (K. pneumoniae strains [2]; strain KP-326): Bactericide (bactericidal activity when the ratio between MBC and MIC is ≤4)
time of treatment to total reduction of viable cells ([3]; A2 at 2× MIC): 6 h
time of treatment to total reduction of viable cells ([3]; A2 at MIC): 10 h
release of 260 nm absorbing material (cell lysis) (K. pneumoniae; 2× MIC, six hours): Cell lysis is also evident
release of 260 nm absorbing material (cytoplasmic contents) (K. pneumoniae; MIC, 10 h of treatment): significant release of cytoplasmic contents
percentage of hemolysis in hypotonic solution (anti-hemolytic evaluation) ([4]; 1000 µg/mL, type B red blood cells): > 80%
percentage of hemolysis in hypotonic solution (anti-hemolytic evaluation), class ([4]; all concentrations (50–1000 µg/mL), three ABO blood types, except 1000 µg/mL in type B): moderate (moderate (40% and 80%))
